In ChEMBL document CHEMBL1201862, “PubChem BioAssay data set” (2004):
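Five concentrations, 48 hours, 96-well plates. Here, GI50 denotes the concentration required for 50% inhibition of growth.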 Calls of active or inactive are those of the source. Rule as the data show it: active = GI50 up to about 1.1 µM and inactive = higher.

Tests used:
Assay in all cases: inhibition of tumour cell growth, NCI panel, 48 h
OVCAR-8 = test system: OVCAR-8
KM12 = test system: KM12
SNB-78 = test system: SNB-78
UACC-62 = test system: UACC-62
SK-OV-3 = test system: SK-OV-3
A498 = test system: A498
CCRF-CEM = test system: CCRF-CEM
Malme-3M = test system: Malme-3M
786-0 = test system: 786-0
SR = test system: SR
SW-620 = test system: SW-620
SF-268 = test system: SF-268
SK-MEL-5 = test system: SK-MEL-5
OVCAR-4 = test system: OVCAR-4
NCI-H522 = test system: NCI-H522
UACC-257 = test system: UACC-257
COLO 205 = test system: COLO 205
SNB-19 = test system: SNB-19
HL-60 = test system: HL-60
UO-31 = test system: UO-31
U-251 = test system: U-251
CAKI-1 = test system: CAKI-1
DLD-1 = test system: DLD-1
LOX IMVI = test system: LOX IMVI
SF-295 = test system: SF-295
XF498 = test system: XF498
A549 = test system: A549
OVCAR-5 = test system: OVCAR-5
K562 = test system: K562
NCI-H226 = test system: NCI-H226
SF-539 = test system: SF-539
M19-MEL = test system: M19-MEL
RXF 393 = test system: RXF 393
SK-MEL-28 = test system: SK-MEL-28
DMS-114 = test system: DMS-114
LXFL 529 = test system: LXFL 529
IGROV-1 = test system: IGROV-1
ACHN = test system: ACHN
HOP-62 = test system: HOP-62
MOLT-4 = test system: MOLT-4
TK-10 = test system: TK-10
SK-MEL-2 = test system: SK-MEL-2
HOP-92 = test system: HOP-92
EKVX = test system: EKVX
HT-29 = test system: HT-29
NCI-H23 = test system: NCI-H23
SN12C = test system: SN12C
DMS-273 = test system: DMS-273
NCI-H460 = test system: NCI-H460
SNB-75 = test system: SNB-75
OVCAR-3 = test system: OVCAR-3
HCT-116 = test system: HCT-116
HCT-15 = test system: HCT-15
MCF7 = test system: MCF7
NCI/ADR-RES = test system: NCI/ADR-RES
RPMI-8226 = test system: RPMI-8226
HCC 2998 = test system: HCC 2998
KM-20L2 = test system: KM-20L2
HOP-18 = test system: HOP-18
M14 = test system: M14

## Cc1nc2cc(N)c(F)cc2[nH]1
OVCAR-8
  GI50: > 100 µM (inactive)
KM12
  GI50: > 100 µM (inactive)
SNB-78
  GI50: > 100 µM (inactive)
UACC-62
  GI50: > 100 µM (inactive)
SK-OV-3
  GI50: > 100 µM (inactive)
A498
  GI50: > 100 µM (inactive)
CCRF-CEM
  GI50: > 100 µM (inactive)
Malme-3M
  GI50: > 100 µM (inactive)
786-0
  GI50: > 100 µM (inactive)
SR
  GI50: > 100 µM (inactive)
SW-620
  GI50: > 100 µM (inactive)
SF-268
  GI50: > 100 µM (inactive)
SK-MEL-5
  GI50: > 100 µM (inactive)
OVCAR-4
  GI50: > 100 µM (inactive)
NCI-H522
  GI50: > 100 µM (inactive)
UACC-257
  GI50: > 100 µM (inactive)
COLO 205
  GI50: > 100 µM (inactive)
SNB-19
  GI50: > 100 µM (inactive)
HL-60
  GI50: > 100 µM (inactive)
UO-31
  GI50: > 100 µM (inactive)
U-251
  GI50: > 100 µM (inactive)
CAKI-1
  GI50: > 100 µM (inactive)
DLD-1
  GI50: > 100 µM (inactive)
LOX IMVI
  GI50: > 100 µM (inactive)
SF-295
  GI50: > 100 µM (inactive)
XF498
  GI50: > 100 µM (inactive)
A549
  GI50: > 100 µM (inactive)
OVCAR-5
  GI50: > 100 µM (inactive)
K562
  GI50: > 100 µM (inactive)
NCI-H226
  GI50: > 100 µM (inactive)
SF-539
  GI50: > 100 µM (inactive)
M19-MEL
  GI50: > 100 µM (inactive)
RXF 393
  GI50: > 100 µM (inactive)
SK-MEL-28
  GI50: > 100 µM (inactive)
DMS-114
  GI50: > 100 µM (inactive)
LXFL 529
  GI50: > 100 µM (inactive)
IGROV-1
  GI50: > 100 µM (inactive)
ACHN
  GI50: > 100 µM (inactive)
HOP-62
  GI50: > 100 µM (inactive)
MOLT-4
  GI50: > 100 µM (inactive)
TK-10
  GI50: > 100 µM (inactive)
SK-MEL-2
  GI50: > 100 µM (inactive)
HOP-92
  GI50: > 100 µM (inactive)
EKVX
  GI50: > 100 µM (inactive)
HT-29
  GI50: > 100 µM (inactive)
NCI-H23
  GI50: > 100 µM (inactive)
SN12C
  GI50: > 100 µM (inactive)
DMS-273
  GI50: > 100 µM (inactive)
NCI-H460
  GI50: > 100 µM (inactive)

## C=C1C(=O)O[C@@H]2[C@H](O)[C@@H](C)[C@@H]3C=CC(=O)[C@@]3(C)[C@H](OC(=O)C=C(C)C)[C@H]12
OVCAR-8
  GI50: 0.421 µM (active)
KM12
  GI50: 1.91 µM (inactive)
UACC-62
  GI50: 0.625 µM (active)
SNB-75
  GI50: 1.04 µM (active)
SK-OV-3
  GI50: 3.57 µM (inactive)
A498
  GI50: 2.21 µM (inactive)
CCRF-CEM
  GI50: 0.183 µM (active)
OVCAR-3
  GI50: 0.895 µM (active)
Malme-3M
  GI50: 0.587 µM (active)
SW-620
  GI50: 0.353 µM (active)
SF-268
  GI50: 0.916 µM (active)
SK-MEL-5
  GI50: 1.69 µM (inactive)
OVCAR-4
  GI50: 1.98 µM (inactive)
NCI-H522
  GI50: 0.179 µM (active)
UACC-257
  GI50: 1.59 µM (inactive)
COLO 205
  GI50: 0.49 µM (active)
SNB-19
  GI50: 5.55 µM (inactive)
HL-60
  GI50: 0.2 µM (active)
HCT-116
  GI50: 0.655 µM (active)
HCT-15
  GI50: 0.242 µM
UO-31
  GI50: 2.82 µM (inactive)
U-251
  GI50: 1.49 µM (inactive)
CAKI-1
  GI50: 0.536 µM (active)
DLD-1
  GI50: 0.277 µM (active)
LOX IMVI
  GI50: 0.457 µM (active)
SF-295
  GI50: 2.8 µM (inactive)
XF498
  GI50: 1.24 µM (inactive)
A549
  GI50: 2.94 µM (inactive)
OVCAR-5
  GI50: 2.52 µM (inactive)
K562
  GI50: 0.199 µM (active)
MCF7
  GI50: 0.56 µM (active)
NCI-H226
  GI50: 2 µM (inactive)
SF-539
  GI50: 0.255 µM (active)
M19-MEL
  GI50: 1.12 µM (active)
NCI/ADR-RES
  GI50: 0.536 µM (active)
SK-MEL-28
  GI50: 0.514 µM (active)
DMS-114
  GI50: 2.4 µM (inactive)
IGROV-1
  GI50: 1.96 µM (inactive)
HOP-62
  GI50: 4.35 µM (inactive)
MOLT-4
  GI50: 0.345 µM (active)
RPMI-8226
  GI50: 0.294 µM (active)
HCC 2998
  GI50: 1.79 µM (inactive)
SK-MEL-2
  GI50: 1.32 µM (inactive)
KM-20L2
  GI50: 1.66 µM (inactive)
HOP-92
  GI50: 0.944 µM (active)
EKVX
  GI50: 1.74 µM (inactive)
HT-29
  GI50: 1.26 µM (inactive)
NCI-H23
  GI50: 1.35 µM (inactive)
SN12C
  GI50: 0.877 µM (active)
HOP-18
  GI50: 1.67 µM (inactive)
DMS-273
  GI50: 1.48 µM (inactive)
NCI-H460
  GI50: 2.11 µM (inactive)

## CCOC(=O)C1N(S(=O)(=O)c2ccc(C)cc2)CCC12c1ccccc1NC2c1ccc(OC)c(OC)c1 (stereo unspecified)
OVCAR-8
  GI50: > 100 µM (inactive)
KM12
  GI50: > 100 µM (inactive)
SNB-78
  GI50: > 100 µM (inactive)
M14
  GI50: > 100 µM (inactive)
UACC-62
  GI50: > 100 µM (inactive)
SNB-75
  GI50: > 100 µM (inactive)
SK-OV-3
  GI50: > 100 µM (inactive)
A498
  GI50: > 100 µM (inactive)
CCRF-CEM
  GI50: 80.5 µM (inactive)
OVCAR-3
  GI50: > 100 µM (inactive)
Malme-3M
  GI50: > 100 µM (inactive)
786-0
  GI50: > 100 µM (inactive)
SR
  GI50: 22 µM (inactive)
SW-620
  GI50: 27.4 µM (inactive)
SF-268
  GI50: > 100 µM (inactive)
SK-MEL-5
  GI50: > 100 µM (inactive)
OVCAR-4
  GI50: > 100 µM (inactive)
NCI-H522
  GI50: > 100 µM (inactive)
UACC-257
  GI50: > 100 µM (inactive)
COLO 205
  GI50: > 100 µM (inactive)
SNB-19
  GI50: > 100 µM (inactive)
HL-60
  GI50: 27.7 µM (inactive)
HCT-116
  GI50: 60.7 µM (inactive)
HCT-15
  GI50: > 100 µM
UO-31
  GI50: > 100 µM (inactive)
U-251
  GI50: > 100 µM (inactive)
CAKI-1
  GI50: > 100 µM (inactive)
DLD-1
  GI50: > 100 µM (inactive)
LOX IMVI
  GI50: > 100 µM (inactive)
SF-295
  GI50: > 100 µM (inactive)
XF498
  GI50: 79.8 µM (inactive)
A549
  GI50: > 100 µM (inactive)
OVCAR-5
  GI50: > 100 µM (inactive)
K562
  GI50: 34.2 µM (inactive)
NCI-H226
  GI50: > 100 µM (inactive)
SF-539
  GI50: > 100 µM (inactive)
M19-MEL
  GI50: > 100 µM (inactive)
RXF 393
  GI50: > 100 µM (inactive)
SK-MEL-28
  GI50: > 100 µM (inactive)
DMS-114
  GI50: > 100 µM (inactive)
LXFL 529
  GI50: > 100 µM (inactive)
IGROV-1
  GI50: 14.6 µM (inactive)
ACHN
  GI50: > 100 µM (inactive)
HOP-62
  GI50: > 100 µM (inactive)
RPMI-8226
  GI50: 13.9 µM (inactive)
HCC 2998
  GI50: > 100 µM (inactive)
TK-10
  GI50: > 100 µM (inactive)
KM-20L2
  GI50: > 100 µM (inactive)
HOP-92
  GI50: 10.7 µM (inactive)
EKVX
  GI50: > 100 µM (inactive)
HT-29
  GI50: > 100 µM (inactive)
NCI-H23
  GI50: > 100 µM (inactive)
SN12C
  GI50: > 100 µM (inactive)
DMS-273
  GI50: > 100 µM (inactive)
NCI-H460
  GI50: > 100 µM (inactive)
